Our source for the TGI and GI50 values is PubChem BioAssay (NCI).

Among the test systems are K-562 leukemia; KM12 colon; SK-MEL-5 melanoma; MALME-3M melanoma; BT-549 breast; HCT-116 colon; TK-10 renal; HS 578T breast; HL-60(TB) leukemia; OVCAR-4 ovarian.
Assay in all cases: inhibition of tumour cell growth, NCI panel, 48 h

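Each compound was tested at five concentrations against cells in 96-well plates for 48 hours. GI50 is the concentration that inhibits growth by half. TGI is the concentration that stops growth completely.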 Bounds are passed on as bounds.

With `CN(C)c1ccc(C(c2ccc(Cl)cc2)c2ccc(N(C)C)cc2)cc1`, the TGI in the test on K-562 leukemia, with KM12 colon, in the test with SK-MEL-5 melanoma, in the test on MALME-3M melanoma, in the test with BT-549 breast and with HCT-116 colon was greater than 100 µM in each case. The TGI in the test on TK-10 renal, in the test on HS 578T breast and in the test on HL-60(TB) leukemia was greater than 100 µM throughout.

For the compound `CNS(=O)(=O)OCC1OC(n2cnc3c(N)ncnc32)C(O)C1O` (stereo unspecified), the GI50 in the test with KM12 colon, in the test on SK-MEL-5 melanoma, in the test on OVCAR-4 ovarian, with MALME-3M melanoma, in the test with BT-549 breast and with HCT-116 colon was greater than 100 µM throughout. Moreover, the GI50 in the test with TK-10 renal and with HS 578T breast was greater than 100 µM in each case. Besides, the TGI in the test on KM12 colon, with SK-MEL-5 melanoma, with OVCAR-4 ovarian, in the test on MALME-3M melanoma, with BT-549 breast and in the test on HCT-116 colon was greater than 100 µM each time. Besides, the TGI in the test with TK-10 renal and with HS 578T breast was greater than 100 µM in each case.

In the case of `COc1ccc(N(/C=C/C(=O)C(F)(F)F)CC(=O)c2ccc(Cl)cc2)cc1`, the GI50 in the test on K-562 leukemia is 13.6 µM; in the test with KM12 colon, 11.7 µM; with SK-MEL-5 melanoma, 15 µM; in the test with OVCAR-4 ovarian, 18 µM; with MALME-3M melanoma, 16 µM; with BT-549 breast, 20.6 µM. Also, the GI50 with HCT-116 colon was 7.62 µM; in the test on TK-10 renal it was 17.7 µM; in the test on HS 578T breast, 25 µM. In addition, the TGI in the test on K-562 leukemia worked out at 43.1 µM; in the test with KM12 colon, 32.8 µM; with SK-MEL-5 melanoma, 29.5 µM; with OVCAR-4 ovarian, 49.1 µM; in the test on MALME-3M melanoma, 37.6 µM; with BT-549 breast, 65.3 µM. The figures for the TGI with HCT-116 colon, with TK-10 renal and in the test with HS 578T breast were 26.6 µM, 40.8 µM and 67.3 µM, respectively.

Regarding `Oc1[nH]c2ccccc2c1N=Nc1c(F)c(F)c(F)c(F)c1F`, the TGI is 33.5 µM in the test on K-562 leukemia; greater than 61.9 µM in the test on KM12 colon; greater than 100 µM in the test with SK-MEL-5 melanoma; greater than 100 µM in the test with OVCAR-4 ovarian; greater than 100 µM with BT-549 breast; greater than 100 µM in the test with HCT-116 colon. Moreover, the TGI was 62.8 µM with TK-10 renal, greater than 100 µM in the test with HS 578T breast and 9.15 µM with HL-60(TB) leukemia.

Consider `Clc1ccccc1C(Nc1ncccn1)Nc1ncccn1`, for which the TGI in the test on K-562 leukemia, in the test with KM12 colon, in the test on SK-MEL-5 melanoma, in the test with OVCAR-4 ovarian, in the test with BT-549 breast and with HCT-116 colon was greater than 100 µM throughout. The TGI with TK-10 renal, in the test with HS 578T breast and with HL-60(TB) leukemia was greater than 100 µM in each case.

Consider `C#COc1cccc(Nc2ncnc3cc(NC(=O)[C@H](C)Cl)ccc23)c1`, for which the GI50 with K-562 leukemia is 2.03 µM; in the test with KM12 colon, 2.44 µM; in the test with SK-MEL-5 melanoma it was 1.39 µM; in the test with MALME-3M melanoma, 4.07 µM; with BT-549 breast it was 3.22 µM; in the test with HCT-116 colon, 2.23 µM. Also, the GI50 in the test with TK-10 renal was 23.6 µM; with HS 578T breast, 2.51 µM; with HL-60(TB) leukemia, 1.1 µM. In addition, the TGI was greater than 62.5 µM in the test with K-562 leukemia; greater than 62.5 µM with KM12 colon; 3.54 µM in the test on SK-MEL-5 melanoma; greater than 62.5 µM in the test on MALME-3M melanoma; greater than 62.5 µM in the test on BT-549 breast; greater than 62.5 µM in the test on HCT-116 colon. The results for the TGI with TK-10 renal, in the test on HS 578T breast and in the test with HL-60(TB) leukemia were greater than 62.5 µM, greater than 62.5 µM and 3.19 µM, respectively.

`COc1ccc(/C=C\c2cc(OC)c(OC)c(OC)c2)cc1OCC(=O)Nc1ccc2nc(C)sc2c1`: the GI50 in the test with K-562 leukemia is 2.19 µM; in the test with KM12 colon, 3.79 µM; with SK-MEL-5 melanoma it was 1.97 µM; with OVCAR-4 ovarian, 2.64 µM; in the test on MALME-3M melanoma, 2.84 µM; in the test with BT-549 breast, 3.05 µM. For the same compound, the GI50 with HCT-116 colon was 3.57 µM; with TK-10 renal it was 4.21 µM; with HS 578T breast it was 4.32 µM. Besides, the TGI in the test on K-562 leukemia was greater than 100 µM; in the test with KM12 colon it was 14.8 µM; in the test with SK-MEL-5 melanoma, 5.14 µM; with OVCAR-4 ovarian it was 9.18 µM; with MALME-3M melanoma, 8.29 µM; in the test with BT-549 breast, 8.53 µM. The TGI in the test with HCT-116 colon, in the test with TK-10 renal and in the test with HS 578T breast was greater than 100 µM each time.

In the case of `O=C(c1ccccc1)n1c(-c2ccccc2)cs/c1=N\S(=O)(=O)c1ccc(N2N=C3c4ccccc4CC3C2c2cccs2)cc1` (stereo unspecified), the GI50 in the test with K-562 leukemia was 27.6 µM; in the test on KM12 colon it was 38.3 µM; in the test with SK-MEL-5 melanoma, 24.4 µM; in the test on OVCAR-4 ovarian it was greater than 100 µM; in the test with BT-549 breast, 67.9 µM; in the test with HCT-116 colon it was 30.5 µM. Besides, the results for the GI50 in the test on TK-10 renal and in the test with HS 578T breast were 30.5 µM and 17 µM, respectively. Moreover, the TGI in the test on K-562 leukemia, with KM12 colon, in the test on SK-MEL-5 melanoma, in the test with OVCAR-4 ovarian, with BT-549 breast and in the test with HCT-116 colon was greater than 100 µM throughout. The TGI is 70.7 µM in the test with TK-10 renal and greater than 100 µM with HS 578T breast.

With `COc1ccc(Nc2nc3cc(N)cc(N)c3nc2-c2ccccc2)cc1OC`, the GI50 in the test with K-562 leukemia is 20.2 µM; in the test with KM12 colon it was 14.8 µM; in the test with SK-MEL-5 melanoma, 12.2 µM; in the test on OVCAR-4 ovarian, 18.7 µM; in the test with MALME-3M melanoma, 15.7 µM; with BT-549 breast it was 25.9 µM. Also, the results for the GI50 in the test on HCT-116 colon, in the test with TK-10 renal and in the test with HS 578T breast were 14.9 µM, 20.9 µM and 18.5 µM, respectively. In addition, the TGI is 71.2 µM in the test with K-562 leukemia; 32 µM in the test on KM12 colon; 25.5 µM in the test with SK-MEL-5 melanoma; 52.1 µM with OVCAR-4 ovarian; 35.7 µM in the test with MALME-3M melanoma; 81.6 µM in the test with BT-549 breast. The figures for the TGI in the test on HCT-116 colon, with TK-10 renal and with HS 578T breast were 29.7 µM, 58.5 µM and 50.2 µM, respectively.

On to `O=C1c2ccccc2C(=O)c2c(NCC3CO3)ccc(NCC3CO3)c21` (stereo unspecified), for which the TGI is greater than 100 µM in the test with K-562 leukemia; 19.4 µM with KM12 colon; 6.44 µM in the test with SK-MEL-5 melanoma; 34 µM with OVCAR-4 ovarian; 18.3 µM in the test on MALME-3M melanoma; 14.1 µM in the test on BT-549 breast. Moreover, the figures for the TGI in the test with HCT-116 colon, in the test with TK-10 renal and in the test on HS 578T breast were 1.21 µM, 45 µM and 15.3 µM, respectively.

Turning to `C=C(C)C(=O)O[C@@H]1C/C(C)=C\[C@H](OC(C)=O)C[C@](C)(O)/C=C2/OC(=O)C(COC(C)=O)=C21`, the TGI in the test on K-562 leukemia amounted to 0.879 µM; in the test with KM12 colon it was 23.5 µM; in the test on SK-MEL-5 melanoma it was 8.4 µM; in the test on MALME-3M melanoma, 0.979 µM; in the test on BT-549 breast, 3.91 µM; in the test with HCT-116 colon, 1.7 µM. Moreover, the results for the TGI in the test on TK-10 renal, in the test with HS 578T breast and with HL-60(TB) leukemia were 3.7 µM, 47 µM and 0.0496 µM, respectively.

`C=C1C(=O)O[C@H]2[C@H]1CC/C(COC(=O)NCCc1c[nH]c3ccc(Cl)cc13)=C\CC[C@@]1(C)O[C@@H]21`: the GI50 was 1.1 µM with K-562 leukemia; 2.64 µM with KM12 colon; 1.83 µM in the test with SK-MEL-5 melanoma; 1.5 µM in the test on OVCAR-4 ovarian; 1.78 µM in the test on MALME-3M melanoma; 1.44 µM in the test on BT-549 breast. Also, the figures for the GI50 in the test on HCT-116 colon, with TK-10 renal and with HS 578T breast were 1.56 µM, 1.59 µM and 3.21 µM, respectively. The TGI with K-562 leukemia turned out to be 5.95 µM; in the test with KM12 colon, 7.32 µM; in the test on SK-MEL-5 melanoma it was 3.33 µM; with OVCAR-4 ovarian, 3.05 µM; with MALME-3M melanoma it was 3.44 µM; in the test with BT-549 breast it was 2.99 µM. In addition, the values for the TGI in the test with HCT-116 colon, in the test on TK-10 renal and with HS 578T breast were 2.97 µM, 2.97 µM and 9.76 µM, respectively.

As to `CC12CCC3c4cc(Br)c(O)c(Br)c4CCC3C1CCC2O` (stereo unspecified), the TGI in the test with K-562 leukemia is 64.6 µM; with KM12 colon, 26.6 µM; in the test on MALME-3M melanoma, 30.8 µM; in the test on BT-549 breast, 30.2 µM; in the test with HCT-116 colon, greater than 100 µM; with TK-10 renal, 43.1 µM. Further, the TGI in the test on HS 578T breast worked out at 49.4 µM; in the test with HL-60(TB) leukemia, 66.6 µM.

With `COc1cc(-n2ccnc2)cc(OC)c1OC`, the GI50 in the test on K-562 leukemia is 68.1 µM; with KM12 colon, 43.2 µM; with SK-MEL-5 melanoma, 59 µM; in the test on OVCAR-4 ovarian, greater than 100 µM; in the test on MALME-3M melanoma, 35.1 µM; in the test with BT-549 breast, greater than 100 µM. The GI50 was 31.9 µM in the test with HCT-116 colon, 42.5 µM with TK-10 renal and greater than 100 µM in the test on HS 578T breast. The TGI in the test with K-562 leukemia, in the test on KM12 colon, in the test with SK-MEL-5 melanoma, with OVCAR-4 ovarian, in the test with MALME-3M melanoma and in the test on BT-549 breast was greater than 100 µM each time. Further, the TGI in the test on HCT-116 colon, in the test with TK-10 renal and with HS 578T breast was greater than 100 µM in each case.

Turning to `O=C(NCc1ccco1)c1cccc(NC2=C(Cl)C(=O)N(Cc3ccccc3)C2=O)c1`, the GI50 is 5.24 µM with K-562 leukemia; 6.49 µM with KM12 colon; 5.26 µM with SK-MEL-5 melanoma; 6.74 µM in the test with OVCAR-4 ovarian; 7.29 µM in the test with BT-549 breast; 3.86 µM in the test with HCT-116 colon. In addition, the GI50 is 3.54 µM in the test on TK-10 renal, 15.4 µM in the test with HS 578T breast and 5.52 µM with HL-60(TB) leukemia. For the same compound, the TGI with K-562 leukemia is greater than 100 µM; in the test on KM12 colon it was 24.5 µM; with SK-MEL-5 melanoma it was 23.3 µM; with OVCAR-4 ovarian, 64.3 µM; in the test on BT-549 breast, 30.7 µM; with HCT-116 colon it was 15.1 µM. In addition, the TGI in the test on TK-10 renal is 9.18 µM; in the test with HS 578T breast, greater than 100 µM; with HL-60(TB) leukemia, 22.3 µM.
